Measured values from PubChem BioAssay AID2060497 (Molecular Pharmacology Branch, DTP, NCI, 2025).
Where “and” joins values, the source holds several entries; their conditions need not be identical. Identical values can stand only once.

Tested on: 317291-083-R-J1-PDC complex spheroids, viability
Experiment: Anticancer human tumor 317291-083-R-J1-PDC patient-derived soft tissue sarcoma cell line growth inhibition [GQUAD]
Details: for viability, T/C: stronger effect = lower value
Description: DNA G-quadruplex Stabilizer Agents in Combinations in Complex Spheroids
A high-throughput screen of multi-cell type tumor spheroids was designed to identify active combinations of DNA G-quadruplex stabilizer agents and targeted small molecules. Complex spheroids include a stromal component modeled by human endothelial cells (HUVEC) and fibroblasts modeled by human mesenchymal stem cells (MSCs). The concentration ranges selected for each drug and investigational agent were based upon clinically achievable concentrations if the clinical Cmax of the agent was known.
Compounds. The drugs and investigational agents: pidnarulex (CX-5461; NSC782164), APTO-253 (NSC789042), BRACO-19 (NSC847499), peposertib (NSC802822), ceralasertib (NSC780249), elimusertib (NSC800525), camonsertib (NSC841442), AZD-1390 (NSC803789), olaparib (NSC753686), talazoparib (NSC767125), ART-558 (NSC835418), sotorasib (NSC818433), MRTX-1133 (NSC836407), SN-38 (NSC673596), topotecan (NSC609699), etoposide (NSC141540), doxorubicin (NSC123127), gemcitabine (NSC613327), 5-fluorouracil (NSC19893), paclitaxel (NSC125973), vemurafenib (NSC761431), panobinostat (NSC761190), R-306465 (JNJ-16241199; NSC773264), adavosertib (NSC754352), TP-3654 (NSC805149), carboplatin (NSC241240), KSQ-4279 (NSC840948), and staurosporine (NSC755774) were obtained from the National Cancer Institute (NCI) Developmental Therapeutics Program Chemical Repository (34). The FDA-approved anticancer drug set is available from the NCI Developmental Therapeutics Program. […] The stock solutions were prepared in dimethyl sulfoxide (DMSO, Sigma-Aldrich, St. Louis, MO, cat. D2650) at 800-fold the tested concentration and stored at -70 degrees C prior to their use. All drugs and investigational agents were tested over a range starting from a high concentration at or near the clinical Cmax and decreasing in half-log increments. If the clinical Cmax for an agent had not been determined, the highest concentration tested was 10 microM.
2.3 Cell Culture. All cells were maintained in an incubator at 37 degrees C and 5% CO2 with 95% humidity. The PDC lines were cultured according to standard operating procedures established by the NCI PDMR. All PDCs were thawed and cultured in Matrigel-coated flasks prepared with a working solution of 1X Ham's F-12 nutrient mix, without supplementation (Invitrogen, cat. 11765054), 100 U/mL penicillin-streptomycin (Invitrogen, cat. 15140122), and 2.5% Matrigel (Corning Inc., cat. 354248) for the first three passages. The 857933-349-R-J2-PDC line was cultured in 6C/Colon 1B media, which includes advanced DMEM/F-12 (Thermo Fisher Scientific, cat. 12634028), 10 mM HEPES (Thermo Fisher Scientific, cat. 15630080), 1X GlutaMAX supplement (Thermo Fisher Scientific, cat. 35050061), 0.1 mg/mL primocin (InvivoGen, cat. ant-pm-2), 10% defined fetal bovine serum, heat inactivated (HyClone Laboratories Inc., cat. SH30070.03HI), 50% L-WRN conditioned media (ATCC, cat. CRL-3276), 1.25 mM N-Acetyl-L-cysteine (Sigma-Aldrich, cat. A9165), 10 mM nicotinamide (Sigma-Aldrich, cat. N0636), 1X B-27 supplement (Thermo Fisher Scientific, cat. 17504044), 1X N-2 supplement (Thermo Fisher Scientific, cat. 17502048), 10 microM Y-27632 dihydrochloride (Tocris Bioscience, cat. 1254), and 50 ng/mL human EGF recombinant protein (Thermo Fisher Scientific, cat. PHG0311). The 485176-168-R4-J1-PDC line was cultured in Panc media, which includes all 6C/Colon 1B media components plus 100 ng/mL human FGF-10 (Thermo Fisher Scientific, cat. 100-26), 500 nM SB-431542 (Selleckchem, cat. S1067), and gastrin (Tocris, cat. 3006).
[…]

[1] = curve of first compound, second compound 0.0316 µM
[2] = curve of first compound, second compound 0.1 µM
[3] = curve of first compound, second compound 0.316 µM
[4] = curve of first compound, second compound 1 µM
[5] = curve of first compound, second compound 3.16 µM
[6] = curve of first compound, second compound 10 µM
[7] = second compound 0.0316 µM, first compound 0.0316 µM
[8] = second compound 0.0316 µM, first compound 0.1 µM
[9] = second compound 0.0316 µM, first compound 0.316 µM
[10] = second compound 0.0316 µM, first compound 1 µM
[11] = second compound 0.0316 µM, first compound 3.16 µM
[12] = second compound 0.0316 µM, first compound 10 µM
[13] = second compound 0.1 µM, first compound 0.0316 µM
[14] = second compound 0.1 µM, first compound 0.1 µM
[15] = second compound 0.1 µM, first compound 0.316 µM
[16] = second compound 0.1 µM, first compound 1 µM
[17] = second compound 0.1 µM, first compound 3.16 µM
[18] = second compound 0.1 µM, first compound 10 µM
[19] = second compound 0.316 µM, first compound 0.0316 µM
[20] = second compound 0.316 µM, first compound 0.1 µM
[21] = second compound 0.316 µM, first compound 0.316 µM
[22] = second compound 0.316 µM, first compound 1 µM
[23] = second compound 0.316 µM, first compound 3.16 µM
[24] = second compound 0.316 µM, first compound 10 µM
[25] = second compound 1 µM, first compound 0.0316 µM
[26] = second compound 1 µM, first compound 0.1 µM
[27] = second compound 1 µM, first compound 0.316 µM
[28] = second compound 1 µM, first compound 1 µM
[29] = second compound 1 µM, first compound 3.16 µM
[30] = second compound 1 µM, first compound 10 µM
[31] = second compound 3.16 µM, first compound 0.0316 µM
[32] = second compound 3.16 µM, first compound 0.1 µM
[33] = second compound 3.16 µM, first compound 0.316 µM
[34] = second compound 3.16 µM, first compound 1 µM
[35] = second compound 3.16 µM, first compound 3.16 µM
[36] = second compound 3.16 µM, first compound 10 µM
[37] = second compound 10 µM, first compound 0.0316 µM
[38] = second compound 10 µM, first compound 0.1 µM
[39] = second compound 10 µM, first compound 0.316 µM
[40] = second compound 10 µM, first compound 1 µM
[41] = second compound 10 µM, first compound 3.16 µM
[42] = second compound 10 µM, first compound 10 µM
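Also: spheroids exposed to compounds for one week before readout.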
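For viability, T/C in this document: percent viability relative to DMSO vehicle wells taken as 100%.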

`O=C(c1cc(Cc2n[nH]c(=O)c3ccccc23)ccc1F)N1CCN(C(=O)C2CC2)CC1` + CN(C)c1ccc(Nc2c3ccc(NC(=O)CCN4CCCC4)cc3nc3cc(NC(=O)CCN4CCCC4)ccc23)cc1 showed an IC50 [1] of 8.52 µM, an IC50 [2] of 8.53 µM and an IC50 [3] of 9.79 µM. For the same compound, the IC50 [4] was under 0.0316 µM, the IC50 [5] was under 0.0316 µM and the IC50 [6] was under 0.0316 µM. For the same compound, the viability, T/C [7] was 107%, the viability, T/C [8] was 88.7% and the viability, T/C [9] was 93.2%. It also gave a viability, T/C [10] of 92.8%, a viability, T/C [11] of 84.9% and a viability, T/C [12] of 44.1%. For the same compound, the viability, T/C [13] was 111%, the viability, T/C [14] was 93.4% and the viability, T/C [15] was 101%. It also gave a viability, T/C [16] of 96.7%, a viability, T/C [17] of 76.3% and a viability, T/C [18] of 45.8%. For the same compound, the viability, T/C [19] was 84.4%, the viability, T/C [20] was 83.3% and the viability, T/C [21] was 83.8%. It also gave a viability, T/C [22] of 67.6%, a viability, T/C [23] of 73.5% and a viability, T/C [24] of 48%. It also gave a viability, T/C [25] of 55%, a viability, T/C [26] of 36.5% and a viability, T/C [27] of 44.2%. It also gave a viability, T/C [28] of 48.1%, a viability, T/C [29] of 52.3% and a viability, T/C [30] of 45.8%. For the same compound, the viability, T/C [31] was 34.7%, the viability, T/C [32] was 27.9% and the viability, T/C [33] was 22.8%. The viability, T/C [34] was 21.4%, the viability, T/C [35] was 16.6% and the viability, T/C [36] was 15.9%. The viability, T/C [37] was 5%, the viability, T/C [38] was 12.6% and the viability, T/C [39] was 14.9%. The viability, T/C [40] was 11.7%, the viability, T/C [41] was 31.9% and the viability, T/C [42] was 6.71%.
For `COc1ncnc(C2CC2)c1-c1ncc2cnn(Cc3ccc(-c4nc(C(F)(F)F)cn4C(C)C)cc3)c2n1`, the viability, T/C (compound 0.0316 µM) was 103% and 107% and 108%, the viability, T/C (compound 0.1 µM) was 92.9% and 85.3% and 81.5% and the viability, T/C (compound 0.316 µM) was 92.4% and 71.4% and 68.1%. For the same compound, the viability, T/C (compound 1 µM) was 74.2% and 64.1% and 68.2%, the viability, T/C (compound 3.16 µM) was 100% and 63.6% and 68.3% and the viability, T/C (compound 10 µM) was 76.2% and 72.3% and 64.5%. The IC50 (curve of compound) was over 10 µM.
For `C#Cc1c(F)ccc2cc(O)cc(-c3ncc4c(N5CC6CCC(C5)N6)nc(OCC56CCCN5CC(F)C6)nc4c3F)c12` (stereo not drawn), the viability, T/C (compound 0.0316 µM) was 102% and 110% and 104%, the viability, T/C (compound 0.1 µM) was 121% and 94.4% and 94.7% and the viability, T/C (compound 0.316 µM) was 106% and 97.1% and 94.4%. The viability, T/C (compound 1 µM) was 117% and 102% and 95.2%, the viability, T/C (compound 3.16 µM) was 124% and 92.5% and 79.8% and the viability, T/C (compound 10 µM) was 87.1% and 32.5% and 43.6%. For the same compound, the IC50 (curve of compound) was > 10 µM and 7.16 µM and 8.22 µM.
For `COc1cccc2c1C(=O)c1c(O)c3c(c(O)c1C2=O)CC(O)(C(=O)CO)CC3OC1CC(N)C(O)C(C)O1` (stereo not drawn) + CN(C)c1ccc(Nc2c3ccc(NC(=O)CCN4CCCC4)cc3nc3cc(NC(=O)CCN4CCCC4)ccc23)cc1, the IC50 [1] was 0.0717 µM, the IC50 [2] was 0.0653 µM and the IC50 [3] was 0.0574 µM. It also gave an IC50 [4] of under 0.0316 µM, an IC50 [5] of under 0.0316 µM and an IC50 [6] of under 0.0316 µM. For the same compound, the viability, T/C [7] was 82.7%, the viability, T/C [8] was 32.4% and the viability, T/C [9] was 21.1%. For the same compound, the viability, T/C [10] was 13.2%, the viability, T/C [11] was 0.97% and the viability, T/C [12] was 0.41%. For the same compound, the viability, T/C [13] was 64.1%, the viability, T/C [14] was 41.8% and the viability, T/C [15] was 22.2%. It also gave a viability, T/C [16] of 12.1%, a viability, T/C [17] of 1.05% and a viability, T/C [18] of 0.35%. For the same compound, the viability, T/C [19] was 64.2%, the viability, T/C [20] was 35.1% and the viability, T/C [21] was 23.6%. It also gave a viability, T/C [22] of 8.77%, a viability, T/C [23] of 1.59% and a viability, T/C [24] of 0.73%. It also gave a viability, T/C [25] of 29.1%, a viability, T/C [26] of 18.6% and a viability, T/C [27] of 14.9%. The viability, T/C [28] was 3.06%, the viability, T/C [29] was 0.9% and the viability, T/C [30] was 0.65%. It also gave a viability, T/C [31] of 28.8%, a viability, T/C [32] of 15.1% and a viability, T/C [33] of 12.1%. The viability, T/C [34] was 4.09%, the viability, T/C [35] was 0.51% and the viability, T/C [36] was 0.86%. The viability, T/C [37] was 9.63%, the viability, T/C [38] was 7.93% and the viability, T/C [39] was 3.54%. It also gave a viability, T/C [40] of 1.41%, a viability, T/C [41] of 1.22% and a viability, T/C [42] of 0.51%.
